Measured values from PMC8871312, “Effects of Microbial Transformation on the Biological Activities of Prenylated Chalcones from Angelica keiskei” (Foods, 2022).

molecular target: T1, Tyrosinase from mushroom; assay: dopachrome absorbance at […] nm; type: biochemical; details: 2 mM L-tyrosine, 0.1 M phosphate pH 6.5, 37 °C, 30 min, 150 U/mL enzyme; read-out: IC50 ± SD (μM) / Tyrosinase
T1 construct: gene PPO3

SMILES	IC50 [µM]
CC(C)=CCC/C(C)=C/Cc1c(O)ccc(C(=O)/C=C/c2ccc(O)cc2)c1O [compound 3, xanthoangelol]	> 100
CC(C)=CCc1c(O)ccc(C(=O)/C=C/c2ccc(O)cc2)c1O [compound 1, isobavachalcone]	> 100
COC(C)(C)CCc1c(O[C@@H]2O[C@H](CO)[C@@H](O)[C@H](O)[C@H]2O)ccc(C(=O)/C=C/c2ccc(O)cc2)c1O [compound 5, 3′-(3-O-Methyl-3-methylbutyl)-4′-O-β-D-glucopyranosyl-4,2′-dihydroxychalcone]	28.7 ± 1.24
CC(C)=CCc1c(O[C@@H]2O[C@H](CO)[C@@H](O)[C@H](O)[C@H]2O)ccc(C(=O)/C=C/c2ccc(O)cc2)c1O [compound 6, 3′-(3-methyl-2-butenyl)-4′-O-β-D-glucopyranosyl-4,2′-dihydroxychalcone]	43.1 ± 6.74
CCOC(C)(C)CCc1c(O[C@@H]2O[C@H](CO)[C@@H](O)[C@H](O)[C@H]2O)ccc(C(=O)/C=C/c2ccc(O)cc2)c1O [compound 7, 3′-(3-O-Ethyl-3-methylbutyl)-4′-O-β-D-glucopyranosyl-4,2′-dihydroxychalcone]	33.3 ± 1.16
CC(C)=CCC/C(C)=C/Cc1c(O[C@@H]2O[C@H](CO)[C@@H](O)[C@H](O)[C@H]2O)ccc(C(=O)/C=C/c2ccc(O)cc2)c1O [compound 10, 4′-O-β-D-Glucopyranosyl xanthoangelol]	71.7 ± 9.22
CC(C)(O)CCc1c(O[C@@H]2O[C@H](CO)[C@@H](O)[C@H](O)[C@H]2O)ccc(C(=O)/C=C/c2ccc(O)cc2)c1O [compound 4, 3′-(3-Hydroxy-3-methylbutyl)-4′-O-β-D-glucopyranosyl-4,2′-dihydroxychalcone]	78.5 ± 3.13

molecular target: T1, Tyrosinase from mushroom; assay: dopachrome absorbance at […] nm; type: biochemical; details: 2 mM L-tyrosine, 0.1 M phosphate pH 6.5, 37 °C, 30 min, 150 U/mL enzyme; read-out: IC50 ± SD (μM) / Tyrosinase; remark: another data set of the same source

SMILES	IC50 [µM]
COc1ccc(C(=O)/C=C/c2ccc(O)cc2)c(O)c1CC=C(C)C [compound 2, 4-hydroxyderricin]	> 100
